Test results from US20050124618A1, “Methods of modulating angiogenesis and cancer cell proliferation” (priority 2003, published 2005).
“Also recorded” adds a separate entry of the source.

What was measured:
HUVECs = HUVECs proliferation assay (CellTiter96 AQueous One); format: cell-based, human
Description: HUVECs were seeded onto a 96-well plate at 1×10^4 cells/well. […] Organic solvent concentration never exceeded 0.1% of total culture volume. […] 20 μl of Aqueous One reagent was added to the 100 μl medium in each well. The plates were incubated for 2 hours at 37° C. in a humidified incubator. Absorbance was recorded at 490 nm using a 96-well Bio Kinetics Reader EL340 (Bio-TEK, Winooski, Vt.). The data represent changes in percent absorbance of treated cultures compared with control cells. Three different experiments were carried out, and each point was determined in triplicate.

U251 human glioma cells [1] = test: [3H]thymidine incorporation in U251 cells; format: cell-based; conditions: for inhibition at 10 µM: Homo sapiens
Description: [^3H]Thymidine Incorporation Studies: Thymidine incorporation studies were performed with cells grown in 35-mm culture dishes. […] Palmitic acid and EtOH served as fatty acid and vehicle controls, respectively. At the end of the pulse, the medium was aspirated and the cells rinsed twice with cold 1× phosphate buffered saline (PBS). The rinsed cultures were fixed by exposure to cold 5% trichloracetic acid overnight at 4° C., after which fixed cells were extracted as described previously (Scholler et al., Mol. Pharmacol. 45: 944-954, 1994). A second set of non-fixed dishes was treated with 0.05% trypsin/EDTA to estimate cell numbers. [^3H]thymidine was detected by scintillation counting and expressed as dpm/10^3 cells.

rat cornea = test: Rat cornea pocket angiogenesis assay (growth factor pellets); format: in vivo
Description: (i) Preparation of sustained-release polymer: Sustained-release polymer pellets were prepared by making a 1:1 mix of a 12% solution in ethanol of the polymer (Hydron polyhydroxyethylmethacrylate), with saline containing the growth factors. The growth factors bFGF, VEGF, and EGF were dissolved at a concentration of 125 ng/μl. […] 2 μl of these solutions were added to each pellet. Thus, a pellet containing 250 ng of a single growth factor was implanted at random in the right or left eye. The other eye was implanted with a pellet containing the same dose of growth factor+HET0016. In some rats the pellet contained VEGF alone and VEGF+DDMS. 20 μg of the stable 20-HETE agonist analog WIT003 was implanted in one eye to determine whether it induces angiogenesis. […] 9 μl of the 1:1 Hydron/treatment mixture was placed on the ends of 1.5-cm rods. Each pellet contained 250 ng of its respective growth factor. For bFGF we used sucralfate to stabilize and allow sustained release of this growth factor (Volkin D B et al., Biochim Biophys Acta 1993, 1203:18-26). After drying the pellets for 1 hour, they were ready to be implanted into the cornea of rats.
(ii) Pellet implantation: The rats were anesthetized IM with ketamine (80 mg/kg) and xylazine (10 mg/kg). The eyes were topically anesthetized with 0.5% proparacaine (Ophthetic, Alcon, Tex.) and the globes proptosed with a jeweler's forceps. Using an operating microscope, a central intrastromal linear keratotomy, approximately 1.5 mm in length, was performed with a surgical blade (Bard-Parker #11; Becton Dickinson, Franklin Lake, N.Y.) parallel to the insertion of the lateral rectus muscle. A curved iris spatula (No. 10093-13, Fine Science Tools, Belmont, Calif.) approximately 1.5 mm wide and 5 mm long was inserted under the lip of the incision and gently pushed through the stroma toward the temporal limbus of the eye. The distance between the limbus and the base of the pocket was kept at 1.0±0.1 mm. The pellet was advanced to the temporal end of the pocket. Antibiotic ointment (erythromycin) was applied to the anterior surface of the eye.
(iv) Quantitation of corneal neovascularization: Seven days after pellet implantation, the rats were deeply anesthetized as previously described with ketamine and xylazine. The left ventricle was cannulated and the animal was perfused with 20-25 ml saline through the left ventricle followed by 20-25 ml India ink (waterproof drawing ink, Sanford, Bellwood, Ill.). The eyes were marked for orientation, enucleated and placed in 4% formalin for 24 hours. The cornea was dissected free from the surrounding globe and underlying iris, bisected, and loosely mounted between two glass slides, thus gently flattening the cornea. These flat mounts were examined microscopically using a Nikon Diaphot Epi-fluor 2 microscope attached to a CCD video camera and the images were digitized and saved using a computer.
Neovascularization was determined by comparing total vessel length in the control and experimental eyes. Vessel length was determined by tracing each vessel from the limbus to the pellet. Total length is the sum of these values in pixels and was determined using conventional image analysis software (Sigma Scan Pro, SPSS, Chicago, Ill.)

U251 human glioma cells [2] = test: U251 cell proliferation assay (cell counting); format: cell-based
Description: Culture Conditions: Cells were routinely maintained in DMEM (Invitrogen) supplemented with 10% heat-inactivated fetal bovine serum (FBS), penicillin (10 IU/ml), streptomycin (10 μg/ml) and 10% non-essential amino acids (all purchased from Invitrogen). Cells were maintained at 37° C. in a humidified incubator containing 5% CO2. They were grown in medium containing 10% FBS, which was then replaced with serum-free medium where U251 cells grow exponentially. Treatments were initiated one day after serum removal.
Cell Proliferation Assays: Proliferation studies were performed with cultures plated at a density that ensured exponential growth for at least 5 days. Growth medium was generally replaced by serum-free medium 24 hr after plating. Cells were treated with various concentrations of a given compounds for 24 or 48 hr as described in the Methods. […] Organic solvent never exceeded 0.1% of total culture volume. Cells were harvested by exposure to 0.05% trypsin/EDTA and counted using a hemocytometer.

Structure (SMILES): CCCCc1ccc(N=CNO)c(C)c1 [HET0016, N-hydroxy-N′-(4-butyl-2 methylphenyl) formamidine]
- effect on the proliferative response of HUVECs to VEGF (HUVECs; 250 ng/ml VEGF + 10 μM HET0016, 24 hours): abolished; also recorded: blocked the known proliferative response to VEGF; also recorded: blocks the mitogenic activity of VEGF
- effect on basal proliferation rate of HUVECs (HUVECs; 10 μM HET0016): did not alter basal proliferation rate
- inhibition of DNA synthesis ([3H]thymidine incorporation/uptake) (U251 human glioma cells [1]; 10 μM HET0016, approximately 48 hr): 66%
- inhibition at 10 µM (U251 human glioma cells [1]; U-251, 10 μM HET0016, approximately 24 hr, read-out: inhibition of DNA synthesis ([3H]thymidine incorporation)): 50%
- inhibition at 10 µM (U251 human glioma cells [1]; U-251, 10 μM HET0016, approximately 48 hr, read-out: inhibition of DNA synthesis ([3H]thymidine incorporation/uptake)): 65%
- angiogenic response to inhibitor alone (rat cornea; 20 μg HET0016 or 10 μg DDMS per pellet, no growth factor): Neither HET0016 nor DDMS alone elicited a response different from saline
- effect on the angiogenic response to EGF (rat cornea; EGF 250 ng/pellet + 20 μg HET0016): drastically decreased the angiogenic response; also recorded: obliterated; also recorded: blocks the angiogenic response
- reduction of angiogenic responses to VEGF (rat cornea; VEGF 250 ng/pellet + 5 μg HET0016): about 50%
- effect on the angiogenic response to VEGF (rat cornea; VEGF 250 ng/pellet + 20 μg HET0016, 7 days): almost completely abolished; also recorded: obliterated; also recorded: inhibit angiogenic responses to VEGF
- effect on the angiogenic response to VEGF (rat cornea; VEGF 250 ng/pellet + 40 μg HET0016): almost completely abolished
- effect on the angiogenic response to bFGF (rat cornea; bFGF 250 ng/pellet + 20 μg HET0016): drastically decreased the angiogenic response; also recorded: obliterated; also recorded: blocks the angiogenic response
- effect on EGF-induced proliferation of U251 cells (U251 human glioma cells [2]; 200 ng/ml EGF + 10 μM HET0016, 48 hr): inhibited; also recorded: inhibits the effects of EGF
- inhibition of proliferation of U251 cancer cells (FIG. 17) (U251 human glioma cells [2]; 96-well plates, HET0016 for 48 hrs): about 50%
- inhibition at 10 µM (U251 human glioma cells [2]; Homo sapiens, U-251, 48 h): ~60%
- concentration dependence of inhibition of U251 proliferation (U251 human glioma cells [2]; various concentrations): suppressed by HET0016 in a concentration-dependent manner
